{"source": "patent US20130261045A1", "about": "“GREEN TEA POLYPHENOL ALPHA SECRETASE ENHANCERS AND METHODS OF USE” (UNIVERSITY OF SOUTH FLORIDA, priority 2005, published 2013)", "key": {"[1]": {"system": "Aβ generation", "assay": "Aβ ELISA, transgenic APPsw mouse-derived primary neuronal cells (Example 1)", "assay_type": "cell-based", "details": "20 μM, FIG. 1B", "procedure": "Aβ1-40 and 1-42 peptides were analyzed in the conditioned media from SweAPP N2a cells (FIGS. 1A, 1C, 1D) and transgenic APPsw mouse-derived primary neuronal cells (FIG. 1B) by ELISA (n=3 for each condition).\nTAPI-1, β and γ-secretase inhibitors were obtained from Calbiochem (San Diego, Calif.). Green tea extract (75% polyphenols) was obtained from the Vitamin Shoppe™ (North Bergen, N.J.).\nCultured cells were lysed in ice-cold-lysis buffer (20 mM Tris, pH 7.5, 150 mM NaCl, 1 mM EDTA, 1 mM EGTA, 1% v/v Triton X-100, 2.5 mM sodium pyropgosphate, 1 mM β-glycerolphosphate, 1 mM Na3VO4, 1 μg/mL leupeptin, 1 mM PMSF) as previously described (Tan et al., 2002). Mouse brains were isolated under sterile conditions on ice and placed in ice-cold lysis buffer. […] Total Aβ1-42 species were detected by acid extraction of brain homogenates in 5 M guanidine buffer (ret), followed by a 1:10 dilution in lysis buffer. Soluble Aβ1-42 was directly detected in cultured cell lysates or brain homogenates prepared with lysis buffer described above by a 1:4 or 1:10 dilution, respectively. Aβ1-42 was quantified in these samples using the Aβ1-42 ELISA kit (BioSource, Camarillo, Calif.) in accordance with the manufacturer's instructions, except that standards included a 0.5 M guanidine buffer. […]"}, "[2]": {"system": "APP cleavage processing", "assay": "Western blot/immunoprecipitation of APP cleavage (CTFs, sAPP-α, holo APP) in APP-transfected N2a cells", "assay_type": "cell-based, murine", "procedure": "Cell cultured supernatants were collected and cell lysates were prepared from these cultured cells.\n(§1) Cultured cells and mouse brain were lysed in ice-cold lysis buffer described above, and an aliquot corresponding to 50 μg of total protein was electrophoretically separated using 16.5% Tris-tricine gels. Electrophoresed proteins were then transferred to PVDF membranes (Bio-Rad), washed in dH2O, and blocked for 1 hour at ambient temperature in Tris-buffered saline (TBS; Bio-Rad) containing 5% (w/v) for non-fat dry milk. After blocking, membranes were hybridized for 1 hour at ambient temperature with various antibodies, including against the C- (369), N-terminus of APP (22C11), the N-terminus of Aβ (6E10), and ADAM10 and TACE (Calbiochem). Membranes were then washed 3× for 5 min each in dH2O and incubated for 1 hour at ambient temperature with the appropriate HRP-conjugated secondary antibody (1:1,000, Pierce Biotechnology, Inc. Rockford, Ill.). All antibodies were diluted in TBS containing 5% (w/v) of non-fat dry milk. Blots were developed using the luminal reagent (Pierce Biotechnology). Densitometric analysis was done using the Fluor-S Multimager™ with Quantity One™ software (Bio-Rad). Immunoprecipitation was performed for detection of sAPP-α, sAPP-β and Aβ by incubating 200 μg of total protein of each sample with 6E10 (1:100; Signet) or 22C11 (1:100; Roche, Basel, Switzerland) overnight with gentle rocking at 4° C., and 10 μL of 50% protein A-Sepharose beads were then added to the sample (1:10; Sigma) prior to gentle rocking for an additional 4 hours at 4° C. Following washes with 1× cell lysis buffer, samples were subjected to Western blot as described above. Antibodies used for Western blot included antibody 369 (1:1,000), anti-C-terminal APP antibody (1:500; Chemicon, Temecula, Calif.), BAM-10 (1:1,000; Sigma), 6E10 (1:1,000; Signet) or anti-Actin antibody (1:1,500; as an internal reference control; Roche). α-, β- and γ-secretase activities were quantified in cell lysates and mouse brain homogenates using available kits based on secretase-specific peptides conjugated to fluorogenic receptor molecules (R&D Systems, Minneapolis, Minn.)."}, "[3]": {"system": "α-secretase", "assay": "α-secretase cleavage activity kit, lysates of APP-transfected N2a cells", "assay_type": "cell-based, murine", "details": "first 1 to 3 hours after EGCG"}, "[4]": {"system": "TNF-a converting enzyme (TACE)", "assay": "Western blot of TACE in APP-transfected N2a cells", "assay_type": "cell-based, murine", "details": "in 3 to 4 hours following EGCG treatment, then rapidly cleaved through 8 hours", "description": "Cultured cells and mouse brain were lysed in ice-cold lysis buffer described above, and an aliquot corresponding to 50 μg of total protein was electrophoretically separated using 16.5% Tris-tricine gels. Electrophoresed proteins were then transferred to PVDF membranes (Bio-Rad), washed in dH2O, and blocked for 1 hour at ambient temperature in Tris-buffered saline (TBS; Bio-Rad) containing 5% (w/v) for non-fat dry milk. After blocking, membranes were hybridized for 1 hour at ambient temperature with various antibodies, including against the C- (369), N-terminus of APP (22C11), the N-terminus of Aβ (6E10), and ADAM10 and TACE (Calbiochem). […] Densitometric analysis was done using the Fluor-S Multimager™ with Quantity One™ software (Bio-Rad). […] Antibodies used for Western blot included antibody 369 (1:1,000), anti-C-terminal APP antibody (1:500; Chemicon, Temecula, Calif.), BAM-10 (1:1,000; Sigma), 6E10 (1:1,000; Signet) or anti-Actin antibody (1:1,500; as an internal reference control; Roche). α-, β- and γ-secretase activities were quantified in cell lysates and mouse brain homogenates using available kits based on secretase-specific peptides conjugated to fluorogenic receptor molecules (R&D Systems, Minneapolis, Minn.)."}, "[5]": {"system": "transgenic APPsw mice", "assay": "EGCG IP treatment of transgenic APPsw mice (brain Aβ, APP fragments, secretase activity, plaques)", "assay_type": "in vivo, mouse", "procedure": "Soluble Aβ (FIG. 4B) and insoluble Aβ prepared with 5 M guanidine (FIG. 4C) were analyzed by ELISA. Data are represented as mean+/−SEM of Aβ (pg/mg protein). […] (FIG. 4D) α-, β- and γ-secretase cleavage activities were analyzed by secretase cleavage activity kits. Data are presented as mean+/−SEM of fluorescence units/mg protein. […] (FIG. 4E) Mouse brain paraffin sections stained with anti-human Aβ antibody (4G8); left control PBS-treated mice. […] Top, cingulated cortex (CC); Middle, hippocampus (H); Bottom, entorhinal cortex (EC). […] (FIG. 4F) illustrates bar graphs comparing the Aβ burden (%) for transgenic APPsw mice treated with two different compounds.\nCultured cells were lysed in ice-cold-lysis buffer (20 mM Tris, pH 7.5, 150 mM NaCl, 1 mM EDTA, 1 mM EGTA, 1% v/v Triton X-100, 2.5 mM sodium pyropgosphate, 1 mM β-glycerolphosphate, 1 mM Na3VO4, 1 μg/mL leupeptin, 1 mM PMSF) as previously described (Tan et al., 2002). Mouse brains were isolated under sterile conditions on ice and placed in ice-cold lysis buffer. Brains were then sonicated on ice for approximately 3 min, allowed to stand for 15 min at 4° C., and centrifuged at 15,000 rpm for 15 min. Total Aβ1-42 species were detected by acid extraction of brain homogenates in 5 M guanidine buffer (ret), followed by a 1:10 dilution in lysis buffer. Soluble Aβ1-42 was directly detected in cultured cell lysates or brain homogenates prepared with lysis buffer described above by a 1:4 or 1:10 dilution, respectively. Aβ1-42 was quantified in these samples using the Aβ1-42 ELISA kit (BioSource, Camarillo, Calif.) in accordance with the manufacturer's instructions, except that standards included a 0.5 M guanidine buffer.\nas §1"}, "[6]": {"system": "transgenic APPsw mice", "assay": "EGCG ICV injection of transgenic APPsw mice (cerebral Aβ, α-secretase activity)", "assay_type": "in vivo", "details": "ICV 10 μg/mouse once; 24 hours", "description": "Cultured cells and mouse brain were lysed in ice-cold lysis buffer described above, and an aliquot corresponding to 50 μg of total protein was electrophoretically separated using 16.5% Tris-tricine gels. Electrophoresed proteins were then transferred to PVDF membranes (Bio-Rad), washed in dH2O, and blocked for 1 hour at ambient temperature in Tris-buffered saline (TBS; Bio-Rad) containing 5% (w/v) for non-fat dry milk. […] Densitometric analysis was done using the Fluor-S Multimager™ with Quantity One™ software (Bio-Rad). […] Antibodies used for Western blot included antibody 369 (1:1,000), anti-C-terminal APP antibody (1:500; Chemicon, Temecula, Calif.), BAM-10 (1:1,000; Sigma), 6E10 (1:1,000; Signet) or anti-Actin antibody (1:1,500; as an internal reference control; Roche). α-, β- and γ-secretase activities were quantified in cell lysates and mouse brain homogenates using available kits based on secretase-specific peptides conjugated to fluorogenic receptor molecules (R&D Systems, Minneapolis, Minn.). […]"}, "[7]": {"system": "TNF-α", "assay": "TNF-α levels in cultured medium of microglial cells", "assay_type": "cell-based", "details": "EGCG treatment, data not shown", "text": "It has been shown that TACE is critically involved in TNF-α maturation associated with pro-inflammatory responses (Moro, M. A. et al., 2003)."}, "[8]": {"system": "ADAM10", "assay": "Western blot of ADAM10 maturation in parental (non-transfected) N2a cells", "assay_type": "cell-based, murine", "details": "various doses, 8 h", "description": "(§2) Cultured cells were lysed in ice-cold lysis buffer described above, and an aliquot corresponding to 50 μg of total protein was electrophoretically separated using 16.5% Tris-tricine gels. Electrophoresed proteins were then transferred to PVDF membranes (Bio-Rad, Richmond, Calif.), washed in ddH2O, and blocked for 1 h at ambient temperature in Tris-buffered saline (TBS; Bio-Rad) containing 5% (w/v) non-fat dry milk. After blocking, membranes were hybridized for 1 h at ambient temperature with various primary antibodies. Membranes were then washed 3 times for 5 min each in ddH2O and incubated for 1 h at ambient temperature with the appropriate HRP-conjugated secondary antibody (1:1,000, Pierce Biotechnology, Inc. Rockford, Ill.). All antibodies were diluted in TBS containing 5% (w/v) of non-fat dry milk. Blots were developed using the luminol reagent (Pierce Biotechnology). Densitometric analysis was done using the Fluor-S MultiImager™ with Quantity One™ software (Bio-Rad). […] Antibodies used for Western blot included: antibody 369 (which recognizes the carboxyl-terminus of APP; 1:1,500), clone 22C11 (against the amino-terminus of APP; 1:1,500), clone 6E10 (against amino acids 1-17 of Aβ; 1:1,500), anti-ADAM9 (1:500), and antibodies against ADAM10 (1:500), ADAM17 (1:500) or actin (1:1,500; as an internal reference control)."}, "[9]": {"system": "ADAM10", "assay": "Western blot of ADAM10 maturation in N9 microglial cells", "assay_type": "cell-based", "details": "various doses, 8 h", "description": "as §2"}, "[10]": {"system": "ADAM10", "assay": "Western blot of ADAM10 maturation in primary murine microglial cultures", "assay_type": "cell-based", "details": "various doses, 8 h", "description": "Cultured cells were lysed in ice-cold lysis buffer described above, and an aliquot corresponding to 50 μg of total protein was electrophoretically separated using 16.5% Tris-tricine gels. Electrophoresed proteins were then transferred to PVDF membranes (Bio-Rad, Richmond, Calif.), washed in ddH2O, and blocked for 1 h at ambient temperature in Tris-buffered saline (TBS; Bio-Rad) containing 5% (w/v) non-fat dry milk. After blocking, membranes were hybridized for 1 h at ambient temperature with various primary antibodies. Membranes were then washed 3 times for 5 min each in ddH2O and incubated for 1 h at ambient temperature with the appropriate HRP-conjugated secondary antibody (1:1,000, Pierce Biotechnology, Inc. Rockford, Ill.). All antibodies were diluted in TBS containing 5% (w/v) of non-fat dry milk. Blots were developed using the luminol reagent (Pierce Biotechnology). Densitometric analysis was done using the Fluor-S MultiImager™ with Quantity One™ software (Bio-Rad). […] Antibodies used for Western blot included: antibody 369 (which recognizes the carboxyl-terminus of APP; 1:1,500), clone 22C11 (against the amino-terminus of APP; 1:1,500), clone 6E10 (against amino acids 1-17 of Aβ; 1:1,500), anti-ADAM9 (1:500), and antibodies against ADAM10 (1:500), ADAM17 (1:500) or actin (1:1,500; as an internal reference control). […]"}, "[11]": {"system": "Aβ1-40 and Aβ1-42", "assay": "Aβ1-40/Aβ1-42 ELISA, Tg2576 mouse-derived primary neuronal cells", "assay_type": "cell-based", "details": "Tg2576 primary neurons; various doses, 8 h"}, "[12]": {"details": "IP 20 mg/kg daily for 60 days, ELISA"}}}
{"smiles": "O=C(O[C@@H]1Cc2c(O)cc(O)cc2O[C@@H]1c1cc(O)c(O)c(O)c1)c1cc(O)c(O)c(O)c1", "note": "[EGCG, (−)-epigallocatechin-3-gallate]", "values": [{"measurement": "reduction of Aβ1-42 generation over control (PBS)", "setting": "[1]", "result": 40, "unit": "%"}, {"measurement": "secreted form of APP-α (sAPP-α) in cell cultured medium", "setting": "[2]; 20 μM for 18 hours", "result": "markedly increased"}, {"measurement": "total APP and holo APP expression", "setting": "[2]; EGCG treated cells", "result": "not any changes"}, {"measurement": "α-CTF generation, time course", "setting": "[2]; in 3 to 4 hours and then through to 8 hours after EGCG treatment", "result": "drastically increased"}, {"measurement": "α-secretase cleavage activity in cell lysate", "setting": "[3]", "result": "markedly elevated"}, {"measurement": "TACE expression", "setting": "[4]", "result": "significantly increased"}, {"measurement": "elevation of α-secretase cleavage activity in brain", "setting": "[5]; IP 20 mg/kg daily for 60 days", "result": 28, "unit": "%"}, {"measurement": "sAPP-α in brain versus PBS", "setting": "[5]; IP 20 mg/kg daily for 60 days", "result": "markedly increased"}, {"measurement": "α-CTF in brain versus PBS", "setting": "[5]; IP 20 mg/kg daily for 60 days", "result": "markedly increased"}, {"measurement": "reduction of soluble Aβ1-42 level in brain", "setting": "[5]; [12]", "result": "~50", "unit": "%"}, {"measurement": "reduction of total Aβ1-42 level in brain", "setting": "[5]; [12]", "result": "~25", "unit": "%"}, {"measurement": "reduction of 4G8 immunoreactive and thioflavin S positive Aβ deposits", "setting": "[5]; IP, 14 months of age, across the three brain regions examined", "result": "32-36%"}, {"measurement": "decrease of insoluble 5 M guanidine-prepared Aβ levels", "setting": "[5]; IP, ELISA, FIG. 4C", "result": "approximately 26%"}, {"measurement": "activity of β-secretase cleavage in brain", "setting": "[5]; in vivo, FIG. 4d", "result": "not decreases"}, {"measurement": "elevation of α-secretase cleavage activity in brain", "setting": "[6]", "result": 32, "unit": "%"}, {"measurement": "reduction of cerebral soluble Aβ levels", "setting": "[6]", "result": 39, "unit": "%"}, {"measurement": "α-secretase cleavage activity in brain (mean ± s.e.m.)", "setting": "[6]", "result": "890.29±104.41 fluorescence units/mg of total protein"}, {"measurement": "TNF-α levels in cultured medium", "setting": "[7]", "result": "no associated elevation"}, {"measurement": "ADAM10 maturation", "setting": "[8]", "result": "dose-dependently increased"}, {"measurement": "ADAM10 maturation", "setting": "[9]", "result": "dose-dependently increased"}, {"measurement": "mature ADAM10", "setting": "[10]", "result": "dose-dependent increases"}, {"measurement": "Aβ1-40 levels", "setting": "[11]", "result": "dose-dependent reductions"}, {"measurement": "Aβ1-42 levels", "setting": "[11]", "result": "dose-dependent reductions"}]}
